Values of other authors in US7202233B2, “Alprazolam inclusion complexes and pharmaceutical compositions thereof” (Farmarc Nederland BV, priority 2000, dated 2007).

Tests used:
[1] = tablet formulation, conventional orogastric administration
[2] = sublingual use of commercially available oral tablet dosage forms
[3] = above pH 6; FIG. 1 (Cho et al. 1983)
[4] = 20% solution of 2-hydroxypropyl-beta-cyclodextrin

Compound: Cc1nnc2n1-c1ccc(Cl)cc1C(c1ccccc1)=NC2 [alprazolam, 8-chloro-1-methyl-6-phenyl-4H-[1,2,4]triazolo[4,3a][1,4]benzodiazepine]
- time of maximum plasma levels post-dose [1]: 0.7 to 1.8 h
- speed of onset, sublingual versus conventional orogastric administration [2]: no significant benefit
- presence of ring-open form as a function of pH [3]: no ring-open alprazolam above pH 6
- solubility enhancement [4]: 16 fold
